The target of data set [1] is T1, AcCATPO (Amaranthus cruentus, UniProt A0A2Z0PTH5).
T1 sequence (A0A2Z0PTH5 1-492): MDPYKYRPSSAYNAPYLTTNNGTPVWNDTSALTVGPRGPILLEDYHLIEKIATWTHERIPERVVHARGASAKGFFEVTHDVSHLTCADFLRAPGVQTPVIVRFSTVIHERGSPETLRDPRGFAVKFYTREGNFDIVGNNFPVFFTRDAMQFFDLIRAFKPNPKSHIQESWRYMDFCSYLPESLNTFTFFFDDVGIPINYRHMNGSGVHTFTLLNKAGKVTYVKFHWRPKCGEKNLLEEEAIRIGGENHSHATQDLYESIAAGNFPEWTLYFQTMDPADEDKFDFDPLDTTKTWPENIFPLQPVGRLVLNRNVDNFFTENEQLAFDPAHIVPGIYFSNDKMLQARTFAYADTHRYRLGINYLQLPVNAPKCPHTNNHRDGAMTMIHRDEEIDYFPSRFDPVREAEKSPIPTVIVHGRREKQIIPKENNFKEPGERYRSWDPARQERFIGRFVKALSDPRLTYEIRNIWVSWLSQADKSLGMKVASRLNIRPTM
Put plainly: catalase activity, H2O2 decrease at […] nm. The format is biochemical. The settings on record: read-out: % inhibition at 1 mM.

Data set [2] concerns the target T1, AcCATPO. Kind of data set: monophenolase activity toward L-tyrosine, absorbance […] nm. It counts as biochemical. The conditions noted are these: L-tyrosine substrate, 0.057 mM L-DOPA cofactor, no added CuSO4.
The target in data set [3] is T1, AcCATPO. Described as above. The conditions noted are these: activation, not inhibition, L-tyrosine substrate, 0.057 mM L-DOPA cofactor, no added CuSO4. It counts as biochemical.
Data set [4] concerns the target T1, AcCATPO. Kind of data set: diphenolase activity toward L-DOPA, absorbance […] nm and in-gel staining. It counts as biochemical. The settings on record: activation, not inhibition, 1 mM L-DOPA substrate, pH 8.0, 60 °C.
The target in data set [5] is T1, AcCATPO. The format is biochemical.
The target in data set [6] is T1, AcCATPO. Put plainly: catalase activity, H2O2 decrease at […] nm. It counts as biochemical. The settings on record: not significant, H2O2 substrate (14 mM in standard assay), pH 7.0, 20 °C.
Data set [7] concerns the target T1, AcCATPO. Put plainly: diphenolase activity toward L-DOPA, absorbance […] nm and in-gel staining. The settings on record: 1 mM L-DOPA substrate, pH 8.0, 60 °C, chelator. It counts as biochemical.
Data set [8] deals with T1, AcCATPO. Put plainly: monophenolase activity toward L-tyrosine, absorbance […] nm. The format is biochemical. The settings on record: L-tyrosine substrate, 0.057 mM L-DOPA cofactor, no added CuSO4, chelator.
Substrate in data set [9]: N[C@@H](Cc1ccc(O)cc1)C(=O)O
Kind of data set: purified protein. The conditions noted are these: monophenolase, 0.057 mM L-DOPA as cofactor, pH 8.0, 60 °C. The format is biochemical, Amaranthus cruentus.

Substrate in data set [10]: N[C@@H](Cc1ccc(O)c(O)c1)C(=O)O
Put plainly: purified protein. It counts as biochemical, Amaranthus cruentus. The conditions noted are these: diphenolase, pH 8.0, 60 °C.

Results on 7 molecules are retold here after publication PMC4705222, “Identification of a Catalase-Phenol Oxidase in Betalain Biosynthesis in Red Amaranth (Amaranthus cruentus)” (Frontiers in Plant Science, 2016).

For the molecule `NNC(=O)c1ccncc1` [isoniazid], the inhibition (in general, the change of the read-out against control, counted positive when it falls) at 1000 µM at AcCATPO [1] is about 90%.

Regarding `O=c1cc(CO)occ1O` [kojic acid], the “% decrease at 1 mM” value on AcCATPO [2] was ~ 15%.

In the case of `O=c1cccccc1O` [tropolone], the “% increase of activity at 1 mM” value at AcCATPO [3] is given as ~ 25%; on AcCATPO [4], ~ 55%.

As to `NC(=S)Nc1ccccc1` [phenylthiocarbamide], the “% inhibition at 1 mM” value at AcCATPO [5] is reported as “all inhibitors except tropolone, had a significantly inhibitory effect on the monophenolase activity”.

Take `O=C(O)c1ccccc1O` [salicylic acid]: the “% decrease at 1 mM” value at AcCATPO [6] is reported as under 25%.

Turning to `CCN(CC)C(=S)S` [sodium diethyldithiocarbamate], the figures for the “% loss of activity at 1 mM” value at AcCATPO [7] and on AcCATPO [8] were ~ 99% and ~ 80%, respectively.

B1: AcCATPO (Amaranthus cruentus) (protein)
chain: T1 sequence (A0A2Z0PTH5 1-492)
notes: native, purified from red-violet leaves by native-PAGE gel slice; homotrimer ca. 170 kDa, subunit ca. 58 kDa; cDNA encodes 492 residues; peptides GPILLEDYHLIEK, APGVQTPVIVR, FSTVIHER, ENNFKEPGER, TFAYADTHR
For the molecule B1, in “purified protein [9]”, the Michaelis constant (Km) (in general, the concentration of substrate that gives half-maximal velocity) stood at 200 µM; the Vmax – broadly, the rate approached at saturating substrate – was 0.079 µM/min; the kcat – broadly, the maximal rate divided by the concentration of active sites – was determined as 0.04 s⁻¹; the kcat/Km (usually the turnover number divided by the Michaelis constant) was 200 M⁻¹ s⁻¹. In addition, in the data set “purified protein [10]”, the Km amounted to 600 µM, the Vmax amounted to 0.75 µM/min, the kcat was 0.36 s⁻¹ and the kcat/Km was found to be 600 M⁻¹ s⁻¹.
